Test results as given in patent US20090227616A1, “INHIBITORS OF AKT ACTIVITY” (SMITHKLINE BEECHAM CORPORATION, a corporation, priority 2005, published 2009).
≈ marks a conversion by molar mass, not a printed value.

How the values were obtained:
[1] = Solubility in 50 mM phosphate buffer at pH 7.4; type: physicochemical; conditions: aqueous buffer
[2] = target: T1, FL AKT2 (Homo sapiens, UniProt P31751); experiment: Full-length AKT enzyme assay (substrate phosphorylation, SPA); type: biochemical; conditions: 4 uM ATP
T1 construct: 0.025 um, FL AKT2
T1 sequence (P31751 whole entry): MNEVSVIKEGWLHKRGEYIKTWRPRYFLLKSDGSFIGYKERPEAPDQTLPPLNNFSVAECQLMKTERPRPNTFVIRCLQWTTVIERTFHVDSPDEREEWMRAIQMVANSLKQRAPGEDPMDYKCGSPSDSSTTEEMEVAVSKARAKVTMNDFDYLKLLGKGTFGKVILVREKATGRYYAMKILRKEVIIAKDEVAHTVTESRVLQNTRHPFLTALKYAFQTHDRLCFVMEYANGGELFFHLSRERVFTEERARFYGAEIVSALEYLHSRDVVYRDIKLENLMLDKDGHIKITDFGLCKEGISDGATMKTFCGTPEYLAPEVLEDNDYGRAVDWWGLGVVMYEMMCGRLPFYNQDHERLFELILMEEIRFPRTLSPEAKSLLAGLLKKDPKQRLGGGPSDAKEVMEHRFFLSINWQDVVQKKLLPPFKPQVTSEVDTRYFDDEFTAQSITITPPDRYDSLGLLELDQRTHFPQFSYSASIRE

[3] = target: T2, FL AKT1 (Homo sapiens, UniProt P31749); experiment: as above; type: biochemical; conditions: 4 uM ATP
T2 construct: Full-length human AKT1 gene was amplified by PCR; His tag (from vector pFastBacHTb; own knowledge that this vector adds an N-terminal 6xHis and TEV site) (N); made in house; host or cells: baculovirus; virus produced in Sf9, protein expressed in T. ni insect cells
T2 sequence (P31749 whole entry): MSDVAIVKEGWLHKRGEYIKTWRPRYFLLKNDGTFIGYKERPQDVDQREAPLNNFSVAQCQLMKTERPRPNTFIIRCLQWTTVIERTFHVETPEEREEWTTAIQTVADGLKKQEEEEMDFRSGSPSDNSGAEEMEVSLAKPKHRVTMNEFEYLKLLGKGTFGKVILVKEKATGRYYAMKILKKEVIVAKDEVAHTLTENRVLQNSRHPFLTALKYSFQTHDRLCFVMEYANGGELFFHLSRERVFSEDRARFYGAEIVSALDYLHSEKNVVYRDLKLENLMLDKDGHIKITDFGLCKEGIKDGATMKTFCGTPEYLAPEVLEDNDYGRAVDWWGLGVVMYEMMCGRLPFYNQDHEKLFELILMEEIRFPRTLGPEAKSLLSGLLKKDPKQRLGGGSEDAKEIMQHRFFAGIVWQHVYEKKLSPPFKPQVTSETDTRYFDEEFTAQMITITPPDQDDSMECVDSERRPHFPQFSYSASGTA

[4] = system: BT474 (human breast carcinoma); experiment: Methylene Blue Growth Inhibition Assay; type: cell-based; conditions: BT-474, 72 h, BT474, 3 days
Method: (§1) Tumor cell lines used in this assay were BT474 (human breast carcinoma) and LNCaP (lymph node metastasis of prostate cancer). HFF (normal human foreskin fibroblast) was also included. All cell lines were cultured in RPMI 1640 media (Invitrogen Corporation 22400-071) containing 10% Fetal Bovine Serum (FBS) at 37° C. in a humidified 5% CO2 incubator. Cells were harvested using trypsin/EDTA, counted using a hemacytometer and plated in 96-well tissue culture plates (Costar 35-3075), 100 uL per well, at the following densities: BT474 15,000 cells/well, LNCaP 5,000 cells/well and HFF 5,000 cells/well. 10 mM stocks of compounds in DMSO were serially diluted in DMSO through nine 3-fold dilutions in 96-well plates (Costar Corning 3363), and stored at −80C. The next day, compound dilutions were thawed and 4 uL of each transferred to 662 uL RPMI 1640+100 ug/mL gentamicin, resulting in twice the final required test concentrations. 100 uL of compounds diluted in RPMI 1640 were added to all cell lines. The final concentration of DMSO in all wells, including controls, was 0.3%. Cells were incubated at 37C, 5% CO2 for 3 days. Medium was removed by aspiration. Cell biomass was estimated by staining cells with 80 uL methylene blue (Sigma M9140, 0.5% in 50:50 ethanol:water), and incubating at room temperature for 1 hour. Stain was aspirated and the plates rinsed by immersion in water, then air-dried. Stain was released from cells by adding 100 uL of solubilizing solution (1% N-lauroyl sarcosine, sodium salt, Sigma L5125, in PBS) and incubating at room temperature for at least 30 minutes. Plates were shaken and the optical density at 620 nm was measured on a microplate reader. Percent inhibition of cell growth was calculated relative to vehicle-treated control wells. Concentration of compound that inhibits 50% of cell growth (IC50) was interpolated using non-linear regression (Levenberg-Marquadt) and the equation, y=Vmax*(1−(x̂n/K̂n+x̂n)))+Y2. [Ref: Mager, M. E. (1972) Data Analysis in Biochemistry and Biophysics. New York: Academic Press]

[5] = system: HFF (normal human foreskin fibroblast); experiment: Methylene Blue Growth Inhibition Assay; type: cell-based; conditions: 72 h, 3 days
Method: as §1

[6] = system: LNCaP (lymph node metastasis of prostate cancer); experiment: Methylene Blue Growth Inhibition Assay; type: cell-based; conditions: Homo sapiens, 72 h, 3 days
Method: as §1

Row | solubility [1] | IC50 [2] | IC50 [3] | IC50 [4] | IC50 [6] | Structure (SMILES) | IC50 [5]
1 | 152 µM (≈ 66.8 µg/mL) | 0.016 µM | 0.002 µM | 0.437 µM | 0.096 µM | CCn1c(-c2nonc2N)nc2c(C#CC(C)(C)O)ncc(OCCCN3CCCC3)c21 [Example 2, 4-(2-(4-amino-1,2,5-oxadiazol-3-yl)-1-ethyl-7-{[3-(1-pyrrolidinyl)propyl]oxy}-1H-imidazo[4,5-c]pyridin-4-yl)-2-methyl-3-butyn-2-ol] | > 15 µM
2 | 86 µM (≈ 37.8 µg/mL) | – | – | 0.508 µM | 0.058 µM | CCn1c(-c2nonc2N)nc2c(C#CC(C)(C)O)ncc(OCCCNC3CCC3)c21 [Example 5, 4-(2-(4-amino-1,2,5-oxadiazol-3-yl)-7-{[3-(cyclobutylamino)propyl]oxy}-1-ethyl-1H-imidazo[4,5-c]pyridin-4-yl)-2-methyl-3-butyn-2-ol] | 25.9 µM
3 | 35 µM (≈ 15.9 µg/mL) | 0.025 µM | 0.003 µM | 0.496 µM | 0.096 µM | CCn1c(-c2nonc2N)nc2c(C#CC(C)(C)O)ncc(OCCCN3CCCCC3)c21 [Example 1, 4-(2-(4-amino-1,2,5-oxadiazol-3-yl)-1-ethyl-7-{[3-(1-piperidinyl)propyl]oxy}-1H-imidazo[4,5-c]pyridin-4-yl)-2-methyl-3-butyn-2-ol] | 17.7 µM
4 | 151 µM (≈ 73.3 µg/mL) | – | – | 0.264 µM | 0.056 µM | CCn1c(-c2nonc2N)nc2c(C#CC(C)(C)O)ncc(OCCC(N)C3CCSCC3)c21 (single isomer, unassigned; (-)) [Example 14, (−)-4-(2-(4-amino-1,2,5-oxadiazol-3-yl)-7-{[3-amino-3-(tetrahydro-2H-thiopyran-4-yl)propyl]oxy}-1-ethyl-1H-imidazo[4,5-c]pyridin-4-yl)-2-methyl-3-butyn-2-ol] | 19.2 µM
